From patent publication US12649751B2 (Arcus Biosciences, Inc., priority 2022, dated 2026)
Like-named read-outs stand apart in the source and are kept apart here.

Target: HPK1 (Homo sapiens, UniProt Q92918)
Test: HPK1 Biochemical Assay (ADP-Glo luminescence; low ATP 10 μM or high ATP 200 μM)
Protocol: Dose-response assays were performed in Corning® Low Volume 384-well assay plates containing 100 nL of 22 serial 2-fold compound dilutions. Wells containing DMSO alone were used as negative control. A kinase mixture (5 μL) containing 2 nM HPK1 (or 5 nM for high ATP assay) in assay buffer (50 mM Hepes pH 7.4, 10 mM MgCl2, 0.01% Brij-15, 0.01% bovine serum albumin, and 1 mM dithiothreitol) was added to the assay plates and incubated at 25° C. for 1 hour. Wells without HPK1 were used as positive control. A […] of 10 μM ATP (or 200 μM for high ATP) and 0.2 μg/μL […] was then added to the wells, resulting in a 10 μL total reaction volume. Following incubation of the assay plates at 25° C. for 1 hour, 10 μL of ADP-Glo reagent was added to the wells and the plates were incubated at 25° C. for a further 40 minutes (or 1 hour for high ATP assay). Finally, 20 μL of Kinase Detection Reagent was added, and the plates were incubated for another 30 minutes at 25° C. An Envision plate reader was then used to detect the luminescence signals. IC50 values were determined by fitting the data to a standard 4-parameter logistic equation. The results are summarized in the Biochemical Potency columns of Tables 4 and 5 below (Biochemical Potency (high ATP); Biochemical Potency (low ATP)).

[1] = 2 nM HPK1, 10 μM ATP, read-out: Biochemical Potency (low ATP)
[2] = HPK1 ADP-Glo assay, low ATP (10 μM ATP, 2 nM HPK1), read-out: Biochemical Potency (low ATP)

Chain of HPK1 (Q92918 whole entry, species assumed): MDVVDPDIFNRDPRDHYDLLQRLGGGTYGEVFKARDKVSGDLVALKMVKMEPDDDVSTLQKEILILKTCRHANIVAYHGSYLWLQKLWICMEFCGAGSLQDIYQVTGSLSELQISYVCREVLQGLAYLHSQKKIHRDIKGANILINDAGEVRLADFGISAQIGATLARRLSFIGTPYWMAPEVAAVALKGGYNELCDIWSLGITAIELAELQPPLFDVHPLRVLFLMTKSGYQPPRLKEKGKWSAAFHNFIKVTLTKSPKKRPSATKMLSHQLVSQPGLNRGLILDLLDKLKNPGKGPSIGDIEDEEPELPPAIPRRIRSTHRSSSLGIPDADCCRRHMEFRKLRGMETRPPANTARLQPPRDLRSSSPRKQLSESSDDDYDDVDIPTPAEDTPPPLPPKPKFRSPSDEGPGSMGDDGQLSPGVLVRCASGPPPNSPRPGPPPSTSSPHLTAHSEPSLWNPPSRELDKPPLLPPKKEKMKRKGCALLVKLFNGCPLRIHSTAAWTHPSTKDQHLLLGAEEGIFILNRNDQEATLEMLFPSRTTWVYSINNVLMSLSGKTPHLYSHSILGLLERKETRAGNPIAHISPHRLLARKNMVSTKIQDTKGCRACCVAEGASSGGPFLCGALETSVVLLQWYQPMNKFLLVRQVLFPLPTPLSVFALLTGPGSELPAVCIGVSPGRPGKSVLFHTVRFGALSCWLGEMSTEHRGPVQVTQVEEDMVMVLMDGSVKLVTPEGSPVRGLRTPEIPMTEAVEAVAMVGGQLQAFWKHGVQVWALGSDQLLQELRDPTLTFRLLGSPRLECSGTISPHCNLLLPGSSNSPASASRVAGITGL

SMILES	IC50 [1] [nM]	other results
Cc1cccnc1-c1nc2cc(Nc3cccc(N4C5CC4CN(C)C5)n3)ncc2s1 [Example 99, 6-{3-Methyl-3,6-diazabicyclo[3.1.1]heptan-6-yl}-N-[2-(3-methylpyridin-2-yl)-[1,3]thiazolo[5,4-c]pyridin-6-yl]pyridin-2-amine]	1000 to 5000	
Cc1ncccc1-c1nc2cc(Nc3cccc(N4C[C@@H]5C[C@H]4CN5C)n3)ncc2s1 [Example 138, 6-[(1S,4S)-5-Methyl-2,5-diazabicyclo[2.2.1]heptan-2-yl]-N-[2-(2-methylpyridin-3-yl)-[1,3]thiazolo[5,4-c]pyridin-6-yl]pyridin-2-amine]	< 100	
c1cc(C2CCOCC2)c(CN2CCCC2)nc1Nc1cc2nc(N3C[C@H]4C[C@@H]3CO4)sc2cn1 [Example 238, N-{2-[(1R,4R)-2-Oxa-5-azabicyclo[2.2.1]heptan-5-yl]-[1,3]thiazolo[5,4-c]pyridin-6-yl}-5-(oxan-4-yl)-6-[(pyrrolidin-1-yl)methyl]pyridin-2-amine]	100 to 1000	
Fc1cccc(F)c1-c1nc2cc(Nc3ccc(N4CCC(F)(F)C4)c(CN4CCCC4)n3)ncc2s1 [Example 11, N-[2-(2,6-Difluorophenyl)-[1,3]thiazolo[5,4-c]pyridin-6-yl]-5-(3,3-difluoropyrrolidin-1-yl)-6-[(pyrrolidin-1-yl)methyl]pyridin-2-amine]	100 to 1000	
CC(C)(O)c1cccc(-c2nc3cc(Nc4cc(C5CCOCC5)nc(N5C[C@@H]6C[C@H]5CN6)n4)ncc3s2)c1 [Example 442]		IC50 [2]: < 100 nM
c1cc(C2CCOCC2)c(CN2CCCC2)nc1Nc1cc2nc(N3C4COCC3C4)sc2cn1 [Example 237, N-(2-{3-Oxa-6-azabicyclo[3.1.1]heptan-6-yl}-[1,3]thiazolo[5,4-c]pyridin-6-yl)-5-(oxan-4-yl)-6-[(pyrrolidin-1-yl)methyl]pyridin-2-amine]	< 100	
Cc1cccnc1-c1nc2cc(Nc3ccnc(N4C[C@@H]5C[C@H]4CN5C)n3)ncc2s1 [Example 158, 2-[(1S,4S)-5-Methyl-2,5-diazabicyclo[2.2.1]heptan-2-yl]-N-[2-(3-methylpyridin-2-yl)-[1,3]thiazolo[5,4-c]pyridin-6-yl]pyrimidin-4-amine]	< 100	
CN1C[C@@H]2C[C@H]1CN2c1nccc(Nc2cc3nc(-c4ccnc(N5CCC[C@@H](O)C5)c4)sc3cn2)n1 [Example 459]		IC50 [2]: < 100 nM
Cc1cc(Nc2cc3nc(-c4ccnc(C)c4)sc3cn2)nc(OC2CNCC2(F)F)c1 (stereo not drawn) [Example 171, 6-[(4,4-Difluoropyrrolidin-3-yl)oxy]-4-methyl-N-[2-(2-methylpyridin-4-yl)-[1,3]thiazolo[5,4-c]pyridin-6-yl]pyridin-2-amine]	< 100	
Cc1cccnc1-c1nc2cc(Nc3cccc(N4C[C@H](C)N(C)[C@@H](C)C4)n3)ncc2s1 [Example 102, N-[2-(3-Methylpyridin-2-yl)-[1,3]thiazolo[5,4-c]pyridin-6-yl]-6-[(3S,5S)-3,4,5-trimethylpiperazin-1-yl]pyridin-2-amine]	100 to 1000	
CN1C[C@@H]2C[C@H]1CN2c1nccc(Nc2cc3nc(-c4ccnc(N5CC[C@H](F)C5)c4)sc3cn2)n1 [Example 265, N-(2-{2-[(3S)-3-Fluoropyrrolidin-1-yl]pyridin-4-yl}-[1,3]thiazolo[5,4-c]pyridin-6-yl)-2-[(1S,4S)-5-methyl-2,5-diazabicyclo[2.2.1]heptan-2-yl]pyrimidin-4-amine]	< 100	
Cc1cccc(C)c1-c1nc2cc(Nc3ccc(N4CCC(F)(F)C4)c(CN4CCCC4)n3)ncc2s1 [Example 10, 5-(3,3-Difluoropyrrolidin-1-yl)-N-[2-(2,6-dimethylphenyl)-[1,3]thiazolo[5,4-c]pyridin-6-yl]-6-[(pyrrolidin-1-yl)methyl]pyridin-2-amine]	< 100	
CN1C[C@@H]2C[C@H]1CN2c1nccc(Nc2cc3nc(-c4ncco4)sc3cn2)n1 [Example 420]		IC50 [2]: < 100 nM
Cc1ccc(Nc2cc3nc(-c4ccc(F)cc4)sc3cn2)nc1CN1CCCC1 [Example 32, N-[2-(4-Fluorophenyl)-[1,3]thiazolo[5,4-c]pyridin-6-yl]-5-methyl-6-[(pyrrolidin-1-yl)methyl]pyridin-2-amine]	< 100	
Cc1ccc(Nc2cc3nc(-c4cc(F)cc(F)c4)sc3cn2)nc1CN1CCCC1 [Example 33, N-[2-(3,5-Difluorophenyl)-[1,3]thiazolo[5,4-c]pyridin-6-yl]-5-methyl-6-[(pyrrolidin-1-yl)methyl]pyridin-2-amine]	100 to 1000	
Cc1cccnc1-c1nc2cc(Nc3ccc(C(F)(F)F)c(CN4CCCC4)n3)ncc2s1 [Example 59, N-[2-(3-Methylpyridin-2-yl)-[1,3]thiazolo[5,4-c]pyridin-6-yl]-6-[(pyrrolidin-1-yl)methyl]-5-(trifluoromethyl)pyridin-2-amine]	100 to 1000	
Cc1cccnc1-c1nc2cc(Nc3ccc(C)c(N4CCC[C@H]4CN)n3)ncc2s1 [Example 72, 6-[(2S)-2-(Aminomethyl)pyrrolidin-1-yl]-5-methyl-N-[2-(3-methylpyridin-2-yl)-[1,3]thiazolo[5,4-c]pyridin-6-yl]pyridin-2-amine]	< 100	
CN1C[C@@H]2C[C@H]1CN2c1nccc(Nc2cc3nc(-c4ccnc(N5CC[C@H](O)C5)c4)sc3cn2)n1 [Example 266, (3S)-1-{4-[6-({2-[(1S,4S)-5-Methyl-2,5-diazabicyclo[2.2.1]heptan-2-yl]pyrimidin-4-yl}amino)-[1,3]thiazolo[5,4-c]pyridin-2-yl]pyridin-2-yl}pyrrolidin-3-ol]	< 100	
Cc1cccnc1-c1nc2cc(Nc3cccc(N4C[C@@H]5CCN(C)[C@@H]5C4)n3)ncc2s1 [Example 111, 6-[(3aS,6aS)-1-Methyl-octahydropyrrolo[3,4-b]pyrrol-5-yl]-N-[2-(3-methylpyridin-2-yl)-[1,3]thiazolo[5,4-c]pyridin-6-yl]pyridin-2-amine]	< 100	
Cc1ccc(Nc2cc3nc(-c4ncccc4C(C)C)sc3cn2)nc1CN1CCCC1 [Example 50, 5-Methyl-N-{2-[3-(propan-2-yl)pyridin-2-yl]-[1,3]thiazolo[5,4-c]pyridin-6-yl}-6-[(pyrrolidin-1-yl)methyl]pyridin-2-amine]	< 100	
CC[C@@H]1COCCN1c1cncc(-c2nc3cc(Nc4cc(C)nc(N5C[C@@H]6C[C@H]5CN6CC)n4)ncc3s2)c1 [Example 473]		IC50 (HPK1 ADP-Glo assay, high ATP (200 μM ATP, 5 nM HPK1), read-out: Biochemical Potency (high ATP)): < 100 nM
CN(C)S(=O)(=O)c1cccc(-c2nc3cc(Nc4cccc(N5C[C@@H]6C[C@H]5CN6)n4)ncc3s2)c1 [Example 325]		IC50 [2]: < 100 nM
Cc1cc(Nc2cc3nc(N4CCC[C@H](O)C4)sc3cn2)nc(O[C@H]2CCNC2)c1 [Example 192, (3S)-1-(6-{[4-Methyl-6-((3S)-pyrrolidin-3-yloxy)pyridin-2-yl]amino}-[1,3]thiazolo[5,4-c]pyridin-2-yl)piperidin-3-ol]	< 100	
Cc1cccnc1-c1nc2cc(Nc3cccc(N4C[C@@H]5C[C@H]4CN5C4CCOCC4)n3)ncc2s1 [Example 117, N-[2-(3-Methylpyridin-2-yl)-[1,3]thiazolo[5,4-c]pyridin-6-yl]-6-[(1S,4S)-5-(oxan-4-yl)-2,5-diazabicyclo[2.2.1]heptan-2-yl]pyridin-2-amine]	< 100	
CN1C[C@@H]2C[C@H]1CN2c1nccc(Nc2cc3nc(-c4ccnc(C(C)(C)O)c4)sc3cn2)n1 [Example 121, 2-{4-[6-({2-[(1S,4S)-5-Methyl-2,5-diazabicyclo[2.2.1]heptan-2-yl]pyrimidin-4-yl}amino)-[1,3]thiazolo[5,4-c]pyridin-2-yl]pyridin-2-yl}propan-2-ol]	< 100	
Cc1cccnc1-c1nc2cc(Nc3ccc(C)c(N4C[C@H](N)C[C@@H]4CO)n3)ncc2s1 [Example 67, [(2R,4R)-4-Amino-1-(3-methyl-6-{[2-(3-methylpyridin-2-yl)-[1,3]thiazolo[5,4-c]pyridin-6-yl]amino}pyridin-2-yl)pyrrolidin-2-yl]methanol]	< 100	
CN1C[C@@H]2C[C@H]1CN2c1cncc(Nc2cc3nc(-c4cccc(C(=O)N5CC[C@H](F)C5)c4)sc3cn2)n1 [Example 417]		IC50 [2]: < 100 nM
Cc1cccnc1-c1nc2cc(Nc3cccc(N4CCN5CCC[C@H]5C4)n3)ncc2s1 [Example 113, 6-[(8aS)—Octahydropyrrolo[1,2-a]pyrazin-2-yl]-N-[2-(3-methylpyridin-2-yl)-[1,3]thiazolo[5,4-c]pyridin-6-yl]pyridin-2-amine]	< 100	
CN1C[C@@H]2C[C@H]1CN2c1cncc(Nc2cc3nc(-c4ncco4)sc3cn2)n1 [Example 156, 6-[(1S,4S)-5-Methyl-2,5-diazabicyclo[2.2.1]heptan-2-yl]-N-[2-(1,3-oxazol-2-yl)-[1,3]thiazolo[5,4-c]pyridin-6-yl]pyrazin-2-amine]	< 100	
Cc1ccc(Nc2cc3nc(-c4ncccc4C)sc3cn2)nc1CN1CCC[C@@H]1C [Example 45, 5-Methyl-N-[2-(3-methylpyridin-2-yl)-[1,3]thiazolo[5,4-c]pyridin-6-yl]-6-{[(2S)-2-methylpyrrolidin-1-yl]methyl}pyridin-2-amine]	< 100	
